Article PMC12860872, “Preclinical evaluation of DOTAGA.Glu.(FAPI)2 and DO3A.Glu.(FAPI)2 as theranostics with human dosimetry extrapolation to lutetium-177 and terbium-161 analogs” (European Journal of Nuclear Medicine and Molecular Imaging, 2025)
Values joined by “and” are separate entries in the source; they are usually repeats but may differ in a detail not shown here. Identical values can stand only once.

How the values were obtained:
[1] = molecular target: T1, FAP (Homo sapiens, UniProt Q12884); assay: Saturation binding on FAP+ CAFs; conditions: listed as 68/natGa-DO3A.Glu.(FAPI)2
T1 construct: the CAF cells overexpressing FAP were seeded at a density of 0.8-1 million cells per well; host or cells: hTERT PF179T prostate cancer-associated fibroblasts
T1 sequence (Q12884 1-760): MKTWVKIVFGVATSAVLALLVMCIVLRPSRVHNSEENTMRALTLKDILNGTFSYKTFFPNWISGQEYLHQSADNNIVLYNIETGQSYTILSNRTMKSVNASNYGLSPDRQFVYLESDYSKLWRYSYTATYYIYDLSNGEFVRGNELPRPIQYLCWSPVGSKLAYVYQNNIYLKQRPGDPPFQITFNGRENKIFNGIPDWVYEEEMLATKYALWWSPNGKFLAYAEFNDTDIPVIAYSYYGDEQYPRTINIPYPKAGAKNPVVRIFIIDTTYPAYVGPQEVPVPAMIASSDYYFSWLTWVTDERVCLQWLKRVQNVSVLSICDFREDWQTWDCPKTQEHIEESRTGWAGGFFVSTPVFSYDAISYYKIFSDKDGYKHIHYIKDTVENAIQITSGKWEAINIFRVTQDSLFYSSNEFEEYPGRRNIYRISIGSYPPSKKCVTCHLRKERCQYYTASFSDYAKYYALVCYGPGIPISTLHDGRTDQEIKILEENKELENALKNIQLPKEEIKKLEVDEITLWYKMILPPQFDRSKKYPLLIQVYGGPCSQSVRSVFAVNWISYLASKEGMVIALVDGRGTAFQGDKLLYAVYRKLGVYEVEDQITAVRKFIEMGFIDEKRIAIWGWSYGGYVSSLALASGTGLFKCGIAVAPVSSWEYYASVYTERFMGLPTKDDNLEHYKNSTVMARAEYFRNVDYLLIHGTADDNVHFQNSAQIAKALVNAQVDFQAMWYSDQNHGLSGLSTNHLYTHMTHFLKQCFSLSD
Method: For receptor saturation studies, FAP^+ CAFs were incubated with 0.1 to 10 nM of the radioligands. For internalization studies, approximately 2.5 pmol of the radioligands were added to CAFs followed by incubation for 15, 30, 60, 90, 120, 180 and 240 min for the ^68Ga-labeled or 30, 60, 120, 240 and 360 min for the ^177Lu-labeled radioligands at 37 °C, 5% CO2. For the externalization studies, approximately 2.5 pmol of the ^177Lu-labeled radioligands were added to CAFs followed by incubation for 2 h at 37 °C, 5% CO2. The amount of externalized activity was measured at 0, 10, 20, 30, 60, 120, 240, and 1440 min (Supplemental Data).
For receptor saturation analysis, the CAF cells overexpressing FAP were seeded at a density of 0.8-1 million cells per well in 6-well plates, pre-coated with BME (Cultrex Reduced Growth Factor Basement Membrane Extract, RGF BME, R&D System, Minneapolis, USA) to enhance cell attachment. The cells were incubated overnight with medium (EMEM supplemented and containing 10% FBS, 100 U/mL penicillin and 100 μg/mL streptomycin). The next day, the medium was removed and the cells were incubated for 30 minutes at 37 °C, with 0.8 mL of fresh medium. Afterwards, the plates were placed on ice for 30 minutes followed by incubation with increasing concentrations of ^68/natGa- and ^177/natLu-labelled DOTAGA.Glu.(FAPI)2 and DO3A.Glu.( FAPI)2 (0.1-10 nM final concentration in the wells). After the addition of the radioligands, the cells were incubated for 120 minutes at 4 °C. Non-specific binding was determined in the presence of UAMC1110 at a final concentration of 1 μM. After the completion of the incubation, the cells were washed twice with ice-cold PBS, followed by solubilization with 1 M NaOH. The cell-associated radioactivity was measured using a gamma-counter. Specific binding was plotted against the total molar concentration of the added radiotracer. The Kd values and the concentration of the radioligand required to saturate the receptors (Bmax) were determined by nonlinear regression using GraphPad (Prism 8 Graph Pad Software, San Diego, CA). For all the cell studies the values are normalized for 1x10^6 cells per well and all data are from two independent experiments with triplicates in each experiment.

[2] = tested on: PC3-mice; assay: Biodistribution in PC3-mice incl. blocking; type: in vivo, mouse; conditions: PC3-mice
Method: Male athymic Balb/C nude mice (6 weeks/20–25 g) were implanted with PC3 cells (3.5 × 10^6/100 µL PBS) into their right shoulder to develop tumors. The animals were used for biodistribution and PET/SPECT/CT imaging studies, once tumors reached 250–300 mm^3.
All mice were euthanized with intraperitoneal injection of pentobarbital (150 mg/kg), and selected organs were dissected, weighed, and measured for radioactivity using a gamma-counter. Results are expressed as % injected activity per gram tissue (% I.A./g), presented as mean ± SD (n = 3–4).

[3] = Blocking 1h (20 nmol unlabeled precursor)

`N#C[C@@H]1CC(F)(F)CN1C(=O)CNC(=O)c1ccnc2ccc(OCCCCNC(=O)CC[C@H](NC(=O)CN3CCN(CC(=O)[O-])CCN(CC(=O)[O-])CCN(CC(=O)[O-])CC3)C(=O)NCCCCOc3ccc4nccc(C(=O)NCC(=O)N5CC(F)(F)C[C@H]5C#N)c4c3)cc12.[68Ga+3]` [[^68Ga]Ga-DO3A.Glu.(FAPI)2] was tested, and the Kd ([1]; 0.1 to 10 nM radioligand) was 0.9 nM and 0.89 nM, the Bmax [1] was 0.5 ± 0.05 nM and 0.54 ± 0.05 nM and the “Uptake in Adrenal” value ([2]; 1 h p.i.) was 3.6±1.1 %I.A./g. The “Uptake in Blood” value ([2]; 1 h p.i.) was 2±0.1 %I.A./g, the “Uptake in Bone” value ([2]; 1 h p.i.) was 5±3.1 %I.A./g and the “Uptake in Gallbladder” value ([2]; 1 h p.i.) was 2.3±1.8 %I.A./g. The “Uptake in Heart” value ([2]; 1 h p.i.) was 1±0.1 %I.A./g, the “Uptake in Intestine” value ([2]; 1 h p.i.) was 0.9±0.2 %I.A./g and the “Uptake in Kidney” value ([2]; 1 h p.i.) was 6.7±1.7 %I.A./g. The “Uptake in Liver” value ([2]; 1 h p.i.) was 4.2±1.2 %I.A./g, the “Uptake in Lung” value ([2]; 1 h p.i.) was 3.8±1 %I.A./g and the “Uptake in Muscle” value ([2]; 1 h p.i.) was 2±0.03 %I.A./g. For the same compound, the “Uptake in Pancreas” value ([2]; 1 h p.i.) was 1.8±0.1 %I.A./g, the “Uptake in Salivary glands” value ([2]; 1 h p.i.) was 6.4±0.5 %I.A./g and the “Uptake in Spleen” value ([2]; 1 h p.i.) was 1.3±0.3 %I.A./g. For the same compound, the “Uptake in Stomach” value ([2]; 1 h p.i.) was 0.9±0.1 %I.A./g, the “Uptake in Tumor” value ([2]; 1 h p.i.) was 19±2.4 %I.A./g and the “Uptake in Adrenal” value ([2]; 2 h p.i.) was 2.5±0.8 %I.A./g. The “Uptake in Blood” value ([2]; 2 h p.i.) was 2.2±0.1 %I.A./g, the “Uptake in Bone” value ([2]; 2 h p.i.) was 6.3±1 %I.A./g and the “Uptake in Gallbladder” value ([2]; 2 h p.i.) was 3.5±1.8 %I.A./g. The “Uptake in Heart” value ([2]; 2 h p.i.) was 0.8±0.03 %I.A./g, the “Uptake in Intestine” value ([2]; 2 h p.i.) was 1±0.2 %I.A./g and the “Uptake in Kidney” value ([2]; 2 h p.i.) was 4.4±0.8 %I.A./g. For the same compound, the “Uptake in Liver” value ([2]; 2 h p.i.) was 3.3±0.9 %I.A./g, the “Uptake in Lung” value ([2]; 2 h p.i.) was 2.5±0.6 %I.A./g and the “Uptake in Muscle” value ([2]; 2 h p.i.) was 1.3±0.3 %I.A./g. For the same compound, the “Uptake in Pancreas” value ([2]; 2 h p.i.) was 1.7±0.1 %I.A./g, the “Uptake in Salivary glands” value ([2]; 2 h p.i.) was 5.2±0.1 %I.A./g and the “Uptake in Spleen” value ([2]; 2 h p.i.) was 1.6±0.4 %I.A./g. For the same compound, the “Uptake in Stomach” value ([2]; 2 h p.i.) was 0.9±0.1 %I.A./g, the “Uptake in Tumor” value ([2]; 2 h p.i.) was 19.6 ± 0.7 %I.A./g and the “Uptake in Adrenal” value ([2]; 3 h p.i.) was 2.4±0.8 %I.A./g. The “Uptake in Blood” value ([2]; 3 h p.i.) was 2.2±0.1 %I.A./g, the “Uptake in Bone” value ([2]; 3 h p.i.) was 5.8±1 %I.A./g and the “Uptake in Gallbladder” value ([2]; 3 h p.i.) was 1.7±0.9 %I.A./g. For the same compound, the “Uptake in Heart” value ([2]; 3 h p.i.) was 0.7±0.1 %I.A./g, the “Uptake in Intestine” value ([2]; 3 h p.i.) was 0.9±0.2 %I.A./g and the “Uptake in Kidney” value ([2]; 3 h p.i.) was 3.4±0.4 %I.A./g. For the same compound, the “Uptake in Liver” value ([2]; 3 h p.i.) was 2.8±0.3 %I.A./g, the “Uptake in Lung” value ([2]; 3 h p.i.) was 1.7±0.3 %I.A./g and the “Uptake in Muscle” value ([2]; 3 h p.i.) was 1.1±0.1 %I.A./g. The “Uptake in Pancreas” value ([2]; 3 h p.i.) was 1.4±0.1 %I.A./g, the “Uptake in Salivary glands” value ([2]; 3 h p.i.) was 5±1.4 %I.A./g and the “Uptake in Spleen” value ([2]; 3 h p.i.) was 1.4±0.3 %I.A./g. The “Uptake in Stomach” value ([2]; 3 h p.i.) was 0.7±0.02 %I.A./g, the “Uptake in Tumor” value ([2]; 3 h p.i.) was 17.5 ± 1.1 %I.A./g and the “Uptake in Adrenal” value [2, 3] was 0.1±0.6 %I.A./g. The “Uptake in Blood” value [2, 3] was 2.3±0.5 %I.A./g, the “Uptake in Bone” value [2, 3] was 0.3±0.1 %I.A./g and the “Uptake in Gallbladder” value [2, 3] was 3.5±0.3 %I.A./g. For the same compound, the “Uptake in Heart” value [2, 3] was 0.7±0.2 %I.A./g, the “Uptake in Intestine” value [2, 3] was 0.8±0.3 %I.A./g and the “Uptake in Kidney” value [2, 3] was 6.2±1.2 %I.A./g. For the same compound, the “Uptake in Liver” value [2, 3] was 3.2±0.7 %I.A./g, the “Uptake in Lung” value [2, 3] was 2.1±0.4 %I.A./g and the “Uptake in Muscle” value [2, 3] was 0.3±0.01 %I.A./g. The “Uptake in Pancreas” value [2, 3] was 0.4±0.1 %I.A./g, the “Uptake in Salivary glands” value [2, 3] was 0.7±0.1 %I.A./g and the “Uptake in Spleen” value [2, 3] was 1±0.1 %I.A./g. For the same compound, the “Uptake in Stomach” value [2, 3] was 0.8±0.3 %I.A./g, the “Uptake in Tumor” value [2, 3] was 1.3±0.2 %I.A./g and the Blood pool retention ([2]; over 3 h) was “around 2 %I.A./g”. For the same compound, the tumor uptake ([2]; sustained up to 3 h p.i.) was 18–19 %I.A./g.
